{"source": "patent US20020032581A1", "about": "“Single-patient drug trials used with accumulated database: risk of habituation” (priority 2000, published 2002)", "key": {"individual patient": {"system": "individual patient", "assay": "SPAS single-patient abuse potential test (liking score)", "settings": "for difference of liking score vs placebo: drug minus placebo; for liking score: on drug, codeine: person, diazepam: person, nicotine: person, on average", "procedure": "Single-patient drug kits can be designed to test for “liking scores,” “abuse potential scores,” and patient's desire to re-use the test article compared to placebo and positive controls.\nIn this example, the abuse potential of the narcotic analgesic codeine is tested. A single-patient trial is conducted in a patient for whom treatment with codeine is deemed appropriate. The patient receives a SPAS test kit containing codeine, an alternative drug, e.g., ibuprofen and a questionnaire designed to elicit the liking score, desirability to re-use test article and abuse potential of the patient to codeine.\nIn another example, in follow-up to the test above, the clinician compares diazepam to secobarbital in the same patient."}, "[1]": {"system": "previously tested patients", "assay": "follow-up of previously tested similar patients for addiction / smoking", "settings": "for level of addiction on follow-up of similar patients: human, in vivo"}, "[2]": {"system": "patients with the same disorder (hyperactive child)", "assay": "pooled SPAS database and follow-up of patients continued on methylphenidate 40 mg daily", "format": "in vivo, human", "procedure": "All results obtained from the data are compared against the results provided by data amassed from a pool of about 200 patients with the same disorder. If, of these 200 patients, 55 experience encouraging results (along with the current patient) they are continued on 40 mg daily treatment. If, of these 55 patients, 5 are lost to follow-up, with 50 remaining for prospective evaluation, the physician continues the patient on 40 mg methylphenidate daily based solely on the isolated SPAS single-patient drug trial results. The physician then reviews the pooled data on the 50 patients. This will be done to understand under what circumstances this individual patient is likely to continue to show benefit from methylphenidate 40 mg treatment, and what conditions lead to treatment failure.\nIf for example, the pool of 50 patients who continue treatment have the following scores following the original SPAS testing:\nAll 50 patients are followed up by telephone interview monthly for nine months or more, and outcomes are prospectively documented."}, "hyperactive child": {"system": "hyperactive child", "assay": "single-patient drug trial of methylphenidate vs placebo (SPAS kit, parent/school questionnaires)", "format": "in vivo, human", "procedure": "The usefulness of methylphenidate (Ritalin) treatment in a hyperactive child (Minimum Brain Dysfunction or Attention Deficit Disorder) is evaluated.\nConsists of instructions, “calendar” packaging for drug and a substantially identical looking placebo to assure appropriate dosing and monitoring of compliance, questionnaires and assessment forms and instructions. Completed forms are sent to a neutral observer who has previously assigned the randomized, multiple-crossover schedule of drug and placebo periods. Only the observer has access to when active drug and placebo are taken and only the observer analyzes the data (exception: open-label or single-blind trials). Results are mailed to the physician and, in this case, parent for use in evaluating the usefulness of the therapy. The physician and parent are contacted, e.g., every three months to provide data on therapies utilized, and perceived outcome, until the condition is resolved. The data is also added to a post-marketing surveillance database for use in evaluating future individual study results, and for access by drug companies, regulatory agencies, and health care organizations.\nThe questionnaire portion of the kit includes an initial consent form for the parent or guardian to complete. The questionnaire also provides background information on the study and possible side effects associated with the medication. Also included therein is a form for providing relevant patient and family histories. More importantly, the questionnaire, in this case includes a portion for the weekly input by parents/guardians and school observers for answers to questions relating to the drug evaluation. Physician questionnaires are similarly arranged.\nThe kit described in Example 1 is used to again evaluate the usefulness of methylphenidate (Ritalin) treatment in a hyperactive child except that all interested parties have the benefit of a set of data generated from a pool of patients having a similar need for treatment. […]"}, "[3]": {"system": "patient with perennial allergic rhinitis", "settings": "for incidence of sedation: day 4 of treatment"}, "hypertensive person": {"system": "hypertensive person", "assay": "double-blind single-patient trial of sustained release verapamil vs sustained release propranolol", "format": "in vivo, human", "settings": "for mean systolic blood pressure increases: verapamil 240 mg once daily vs propranolol 180 mg once daily; for mean systolic blood pressure increases / mean diastolic pressure: little difference between drugs; for mean diastolic pressure: throughout the six week trial", "procedure": "In this example, the validity of using a sustained release formulation of verapamil 240 mg once daily as a therapeutic alternative to sustained release propranolol 180 mg once daily in a hypertensive person is shown. The trial during which the two medications are randomly administered in a double-blind manner is six weeks. The questionnaire used is set up in a manner similar to that described in above examples except that the questions elicit information related to the disease of hypertension. Blood pressure and adverse event reports are taken daily by the patient. […] Sleepiness is reported at equal rates for both drugs. All values are statistically insignificant and the therapeutic alternative selection is objectively validated."}, "[4]": {"system": "patients with allergic rhinitis", "assay": "database follow-up of similar patients placed on CM", "format": "in vivo, human", "settings": "year long follow-up", "procedure": "It is determined that they are a candidate for the individual patient formulary management control system. They are considered a candidate because there are similar patients, e.g. 50, in the database, and 40 of them are placed on CM rather than CL based upon the outcome of single-patient drug trials. […] If CL is found to be more acceptable considering the safety, effectiveness and desirability data of the individual patient questionnaire, the co-pay is the same low rate as for CM."}, "[5]": {"settings": "pool of 50 patients who continue treatment"}}, "note": "Counter-ions that a name gives are not always drawn.", "data": [{"smiles": "C=CCC1(C(C)CCC)C(=O)NC(=O)NC1=O", "note": "(stereo not shown) [secobarbital]", "values": [{"measurement": "difference in liking scores, diazepam compared to secobarbital", "setting": "individual patient; same patient", "value": "greater addiction potential"}, {"measurement": "level of addiction on follow-up of similar patients", "setting": "[1]", "value": "high level of addiction"}]}, {"smiles": "COc1ccc2c3c1O[C@H]1[C@@H](O)C=C[C@H]4[C@@H](C2)N(C)CC[C@@]341", "note": "[codeine]", "values": [{"measurement": "difference of liking score vs placebo", "setting": "individual patient", "value": 2, "unit": "units"}, {"measurement": "liking score", "setting": "individual patient", "value": "3 out of 5"}, {"measurement": "became addicted", "setting": "[1]; Caucasian female patients 30 to 40 years with 0 unit difference", "value": "10 out of 1250"}, {"measurement": "became addicted", "setting": "[1]; black male patients 40 to 50 years old with 2-unit difference, treated with codeine", "value": "25 out of 600"}, {"measurement": "became addicted", "setting": "[1]; similar patients with 3 unit differences", "value": "50 out of 110"}]}, {"smiles": "COC(=O)C(c1ccccc1)C1CCCCN1", "note": "(stereo not shown) [methylphenidate]", "values": [{"measurement": "show severe episodes of bizarre behaviors", "setting": "[2]; patients with statistically altered sleep patterns on SPAS testing, within two months", "value": 90, "unit": "%"}, {"measurement": "patients experience grand mal seizures", "setting": "[2]; patients with statistically altered sleep patterns, within two months", "value": "two"}, {"measurement": "Sleep Patterns: have been statistically altered", "setting": "[2]; [5]", "value": 50, "unit": "%"}, {"measurement": "Sleep Patterns: have not been statistically altered", "setting": "[2]; [5]", "value": 50, "unit": "%"}, {"measurement": "Teacher Comments: corroborate improved attention span", "setting": "[2]; [5]", "value": 80, "unit": "%"}, {"measurement": "Teacher Comments: do not corroborate improved attention span", "setting": "[2]; [5]", "value": 20, "unit": "%"}, {"measurement": "Attention Span: have substantial improvement", "setting": "[2]; pool of 50 patients who continue treatment, 40 mg daily", "value": 100, "unit": "%"}, {"measurement": "patient's attention span", "setting": "hyperactive child; 40 mg daily as 10 mg four times daily, periods when methylphenidate is given vs placebo", "value": "improved substantially"}, {"measurement": "teacher comments", "setting": "hyperactive child; during methylphenidate dosing periods", "value": "corroborate improved attention span"}, {"measurement": "sleep patterns", "setting": "hyperactive child; during methylphenidate periods, 40 mg daily", "value": "statistically altered"}]}, {"smiles": "CN1C(=O)CN=C(c2ccccc2)c2cc(Cl)ccc21", "note": "[diazepam]", "values": [{"measurement": "difference of liking score vs placebo", "setting": "individual patient", "value": 0, "unit": "units"}, {"measurement": "liking score", "setting": "individual patient", "value": "4 out of 5"}, {"measurement": "level of addiction on follow-up of similar patients", "setting": "[1]", "value": "comparatively low level of addiction"}]}, {"smiles": "CN1CCCC1c1cccnc1", "note": "(stereo not shown) [nicotine]", "values": [{"measurement": "difference of liking score vs placebo", "setting": "individual patient", "value": 3, "unit": "units"}, {"measurement": "liking score", "setting": "individual patient", "value": "4 out of 5"}, {"measurement": "are smokers", "setting": "[1]; female Caucasian patients 15 to 17 years old with similar 3-unit difference", "value": "820 out of 975"}]}, {"smiles": "CCOC(=O)N1CCC(=C2c3ccc(Cl)cc3CCc3cccnc32)CC1", "note": "[CL, loratidine]", "values": [{"measurement": "incidence of sedation", "setting": "[3]", "value": 2, "unit": "on a 3 point scale"}]}, {"smiles": "COc1ccc(CCN(C)CCCC(C#N)(c2ccc(OC)c(OC)c2)C(C)C)cc1OC", "note": "(stereo not shown) [verapamil]", "values": [{"measurement": "sleepiness reported", "setting": "hypertensive person; six week trial, both drugs", "value": "equal rates"}, {"measurement": "mean systolic blood pressure increases", "setting": "hypertensive person; six week trial", "value": 3, "unit": "%"}, {"measurement": "mean diastolic pressure", "setting": "hypertensive person", "value": "essentially stable"}]}, {"smiles": "CN(C)CCC(c1ccc(Cl)cc1)c1ccccn1", "note": "(stereo not shown) [CM, chlorpheniramine maleate]", "values": [{"measurement": "patients well maintained", "setting": "[4]", "value": "37 of the 40"}, {"measurement": "patient's symptoms on reevaluation", "setting": "[3]; 6 and 12 months post-initiation of CM treatment", "value": "well maintained"}, {"measurement": "incidence of sedation", "setting": "[3]", "value": 2, "unit": "on a 3 point scale"}, {"measurement": "most bothersome symptom, sneezing", "setting": "[3]; person, dust mite protein allergy", "value": "similarly and effectively controlled"}]}, {"smiles": "CC(C)NCC(O)COc1cccc2ccccc12", "note": "(stereo not shown) [propranolol]", "values": [{"measurement": "sleepiness reported", "setting": "hypertensive person; human, in vivo", "value": "equal rates"}, {"measurement": "mean systolic blood pressure increases", "setting": "hypertensive person; six week trial", "value": 3, "unit": "%"}, {"measurement": "mean diastolic pressure", "setting": "hypertensive person", "value": "essentially stable"}]}]}
